Test results published in ChEMBL document CHEMBL1143870, “A new insight into solid-state conformation of macrolide antibiotics” (Bioorg Med Chem, 2008).

Experiments:
Homo sapiens [1] = assay: AUC in human at 500 mg, po administered as single dose; assay type: ADME, organism-based, Plasma; settings: in vivo
[2] = Oral bioavailability in human at 500 mg administered as single dose; assay type: ADME, organism-based; settings: in vivo
[3] = Elimination half life in human at 500 mg, po administered as single dose; assay type: ADME, organism-based; settings: in vivo
[4] = Cmax in human at 500 mg, po administered as single dose; assay type: ADME, organism-based; set-up: dose 500 mg, route oral; settings: in vivo
[5] = Lipophilicity, log D at pH 8.0; assay type: physicochemical; settings: buffer
[6] = Tmax in human at 500 mg, po administered as single dose; assay type: ADME, organism-based; settings: in vivo
[7] = Oral bioavailability in human at 150 mg administered as single dose; assay type: ADME, organism-based; settings: in vivo
[8] = Tmax in human at 150 mg, po administered as single dose; assay type: ADME, organism-based; settings: in vivo
[9] = Cmax in human at 150 mg, po administered as single dose; assay type: ADME, organism-based; set-up: dose 150 mg, route oral; settings: in vivo
Homo sapiens [10] = assay: AUC in human at 150 mg, po administered as single dose; assay type: ADME, organism-based, Plasma; settings: in vivo
[11] = Elimination half life in human at 150 mg, po administered as single dose; assay type: ADME, organism-based; settings: in vivo

Work on `CC[C@H]1OC(=O)[C@H](C)[C@@H](O[C@H]2C[C@@](C)(OC)[C@@H](O)[C@H](C)O2)[C@H](C)[C@@H](O[C@@H]2O[C@H](C)C[C@H](N(C)C)[C@H]2O)[C@](C)(OC)C[C@@H](C)C(=O)[C@H](C)[C@@H](O)[C@]1(C)O` [CLARITHROMYCIN] yielded an AUC (Homo sapiens [1]) of 18900 ng·h/mL, a bioavailability [2] of 55% and a half-life [3] of 4.9 h. The Cmax [4] was 2410 ng/mL, the logD [5] was 3.9 and the Tmax [6] was 2 h.

For `CC[C@H]1OC(=O)[C@H](C)[C@@H](O[C@H]2C[C@](C)(OC)[C@H](O)[C@@H](C)O2)[C@H](C)[C@@H](O[C@@H]2O[C@@H](C)C[C@@H](N(C)C)[C@@H]2O)[C@](C)(O)C[C@@H](C)C(=O)[C@H](C)[C@@H](O)[C@]1(C)O` [ERYTHROMYCIN A DIHYDRATE], the AUC (Homo sapiens [1]) was 5800 ng·h/mL, the bioavailability [2] was 18% and the half-life [3] was 1.5 h. The Cmax [4] was 1900 ng/mL and the Tmax [6] was 1 h.

Work on `CC[C@H]1OC(=O)[C@H](C)[C@@H](O[C@H]2C[C@@](C)(OC)[C@@H](O)[C@H](C)O2)[C@H](C)[C@@H](O[C@@H]2O[C@H](C)C[C@H](N(C)C)[C@H]2O)[C@](C)(O)C[C@@H](C)/C(=N\OCOCCOC)[C@H](C)[C@@H](O)[C@]1(C)O` [ROXITHROMYCIN] yielded a bioavailability [7] of 72%, a Tmax [8] of 2.2 h and a Cmax [9] of 7900 ng/mL. It also gave an AUC (Homo sapiens [10]) of 81000 ng·h/mL, a logD [5] of 2.5 and a half-life [11] of 10.5 h.
